Values belong to the molecule of their own block, whether it stands above or below them.
B2: yeast Pex13-V5 (expressed by its endogenous promotor) (other, yeast (S. cerevisiae), UniProt P80667 1-386, looked up)
chain: MSSTAVPRPKPWETSASLEEPQRNAQSLSAMMTSNQQDSRPTEESNNSNSASESAPEVLPRPAALNSSGTYGESNTIPGIYGNSNYGIPYDNNPYSMNSIYGNSIGRYGYGGSYYGNNYGSFYGGGYGAGAGYGMNNGSGLGESTKATFQLIESLIGAVTGFAQMLESTYMATHNSFFTMISVAEQFGNLKEMLGSFFGIFAIMKFLKKILYRATKGRLGIPPKNFAESEGSKNKLIEDFQKFNDSGTINSNEKATRRKISWKPLLFFLMAVFGFPYLLNKFITKLQTSGTIRASQGNGSEPIDPSKLEFARALYDFVPENPEMEVALKKGDLMAILSKKDPLGRDSDWWKVRTKNGNIGYIPYNYIEIIKRRKKIEHVDDETRTH
notes: not shown: V5 tag

How the values were obtained:
[1] = test system: PEX3 deficient (PEX3−) fibroblast cell line derived from a patient with Zellweger Syndrome; experiment: Live cell fluorescent imaging of peroxin-GFP localization with ATAD1 overexpression; assay type: cell-based, human
[2] = test system: PEX3− patient fibroblasts; experiment: Electron microscopy of mitochondrial morphology; assay type: cell-based, human
Procedure: Representative images of the most observed mitochondrial morphology are shown. […] OCR (pmol/min/norm.unit) for cWT (wild-type), cWT+ATAD1 (wild-type expressing ATAD1) PEX3− (patient), PEX3−+ATAD1 (PEX3− expressing ATAD1), cWT-ATAD1 (wildtype with ATAD1 deletion), PEX3−ATAD1 (patient with ATAD1 deletion) cells plotted against time (XF96e Extracellular Flux Analyzer, Mito-Stress-Test.) Oligomycin A (1 μM), 0.15 μM FCCP and 1 μM rotenone+1 μM antimycin A (final concentrations) were sequentially delivered to the XF96e assay medium through injection ports in the sensor cartridge. n=2 (4+4=8 technical replicates). […] Statistical significance (Welch's test), p values are indicated as: ns (not significant), * p≤0.05, ** p≤0.01, *** p≤0.001, **** p≤0.0001. […] Statistical significance (Welch's test), p values are indicated as: ns (not significant), * p≤0.05, ** p≤0.01, *** p≤0.001, **** p≤0.0001. FIG. 5E show a bar graph representation of calculated respiratory spare capacity (=uncoupled respiration minus basal respiration) of cWT (wild-type), cWT+ATAD1 (wild-type expressing ATAD1) PEX3− (patient), PEX3−+ATAD1 (PEX3− expressing ATAD1), cWT-ATAD1 (wildtype with ATAD1 deletion), PEX3−ATAD1 (patient with ATAD1 deletion). Statistical significance (Welch's test), p values are indicated as: ns (not significant), * p≤0.05, ** p≤0.01, *** p≤0.001, **** p≤0.0001. […]

[3] = test system: PEX3− patient fibroblasts; experiment: Seahorse XF 96e Flux analyzer respiration (Mito-Stress-Test); assay type: cell-based, human
Procedure: (§1) Representative images of the most observed mitochondrial morphology are shown. […] OCR (pmol/min/norm.unit) for cWT (wild-type), cWT+ATAD1 (wild-type expressing ATAD1) PEX3− (patient), PEX3−+ATAD1 (PEX3− expressing ATAD1), cWT-ATAD1 (wildtype with ATAD1 deletion), PEX3−ATAD1 (patient with ATAD1 deletion) cells plotted against time (XF96e Extracellular Flux Analyzer, Mito-Stress-Test.) Oligomycin A (1 μM), 0.15 μM FCCP and 1 μM rotenone+1 μM antimycin A (final concentrations) were sequentially delivered to the XF96e assay medium through injection ports in the sensor cartridge. n=2 (4+4=8 technical replicates). […] Statistical significance (Welch's test), p values are indicated as: ns (not significant), * p≤0.05, ** p≤0.01, *** p≤0.001, **** p≤0.0001. […] Statistical significance (Welch's test), p values are indicated as: ns (not significant), * p≤0.05, ** p≤0.01, *** p≤0.001, **** p≤0.0001. FIG. 5E show a bar graph representation of calculated respiratory spare capacity (=uncoupled respiration minus basal respiration) of cWT (wild-type), cWT+ATAD1 (wild-type expressing ATAD1) PEX3− (patient), PEX3−+ATAD1 (PEX3− expressing ATAD1), cWT-ATAD1 (wildtype with ATAD1 deletion), PEX3−ATAD1 (patient with ATAD1 deletion). Statistical significance (Welch's test), p values are indicated as: ns (not significant), * p≤0.05, ** p≤0.01, *** p≤0.001, **** p≤0.0001.
Therefore, it was tested whether removal of the accumulated peroxins is able to restore mitochondrial respiration. To test the direct dependence of this phenotype with the expression levels of ATAD1, additional cell lines with genetic deletion of ATAD1 was generated. A Seahorse XF 96e Flux analyzer was used to measure respiration (FIG. 5B). A significant lower basal rate of respiration in the PEX3^− cell line was observed compared to the complemented wild-type cWT (FIGS. 5B, 5C). […] In the case that the expression level of ATAD1 is sufficient to cause the phenotype, it would be expected that a much more severe phenotype in the patient with an additional ATAD1 deletion. […]

[4] = test system: PEX3− patient fibroblasts; experiment: Unbiased whole cell lipidomics; assay type: cell-based, human; conditions: patient cell line with overexpression of ATAD1
Procedure: as §1
To complement the characterization with other readouts relevant to reflect important mitochondrial function, unbiased whole cell lipidomics was performed. […] Another readout of flourishing mitochondrial metabolism is the capacity of mitochondria to import […] phosphatidylserines (PSs) into phosphatidylethanolamines (PEs). […] The class of phospho-ether lipids (plasmalogens), precursors to myelin, seems to be unaffected (FIG. 5H).

[5] = molecular target: B2; experiment: BN-PAGE of digitonin-solubilised yeast mitochondrial membranes with complexome profiling (co-migration in a 150-180 kDa subcomplex)
[6] = molecular target: T1, yeast Pex25 (yeast (S. cerevisiae), UniProt Q02969 1-394); experiment: as above
T1 sequence (looked up): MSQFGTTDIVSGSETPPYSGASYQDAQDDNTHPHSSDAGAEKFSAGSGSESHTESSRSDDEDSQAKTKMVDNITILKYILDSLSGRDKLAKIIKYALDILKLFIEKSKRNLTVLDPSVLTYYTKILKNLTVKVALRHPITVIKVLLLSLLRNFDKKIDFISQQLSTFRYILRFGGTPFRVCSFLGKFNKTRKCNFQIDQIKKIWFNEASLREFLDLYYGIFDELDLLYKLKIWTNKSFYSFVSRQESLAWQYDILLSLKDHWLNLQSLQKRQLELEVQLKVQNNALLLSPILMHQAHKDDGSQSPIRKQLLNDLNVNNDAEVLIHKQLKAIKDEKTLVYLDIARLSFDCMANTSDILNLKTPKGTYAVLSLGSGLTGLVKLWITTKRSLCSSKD

[7] = molecular target: B2; experiment: BN-PAGE of digitonin-solubilised yeast mitochondrial membranes with complexome profiling (co-migration)
Procedure: Gel was transferred to PVDF membrane and immunoblotted for PEX13^V5 (V5). […] Left panel represents the protein abundance in the wild-type, middle panel in pex19Δ and the right panel in pex19Δmsp1Δ.
Some peroxisomal matrix proteins were detected that have never been reported to be localized to the mitochondria before (FIG. 2 and FIG. 3A (summary cartoon)). Therefore, it was tested whether the enrichment of peroxins on mitochondria is a random accumulation or a structured event.

Molecule: ATAD1: human AAA-ATPase acting in mitochondrial protein quality control; overexpressed in patient fibroblasts
PEX13-GFP localization ([1]; PEX3−ATAD+ cells (ATAD1 overexpressed), Mitotracker far red counterstain): not stabilized in the mitochondrial outer membrane
PEX12-GFP distribution ([1]; PEX12-GFP transiently expressed, ATAD1 overexpressing patient cell line, compared with PEX13-GFP result): very similar distribution with a slightly milder effect
Share accounted as type 3 (mitochondria with fewer cristae) ([2]; PEX3−ATAD+ cells, patient >80% type 2, wild-type about 80% types 1 and 3): about 70%
Mitochondrial morphology (electron density, cristae) ([2]; patient cell line overexpressing ATAD1, electron microscopy): electron density recovers and cristae formation is partially detected
Mitochondrial spare capacity (uncoupled minus basal respiration) ([3]; PEX3−ATAD+): recovered the mitochondrial spare capacity
Uncoupled respiration ([3]; PEX3−ATAD+ versus cWT, FCCP 0.15 μM): normalized to wild-type respiration
Basal mitochondrial respiration ([3]; PEX3−ATAD+ versus cWT, OCR): restored back to wild-type level
Cardiolipin levels [4]: normalizes to wild-type levels
Phosphatidylethanolamine (PE) levels [4]: slightly higher values than in wild-type
Phospho-ether lipids (plasmalogens) [4]: unaffected

binding result [5]: binds
B1: yeast Pex11 (other, yeast (S. cerevisiae), UniProt Q12462 2-236, looked up)
chain: VCDTLVYHPSVTRFVKFLDGSAGREKVLRLLQYLARFLAVQNSSLLARQLQAQFTTVRKFLRFLKPLNHLQAAAKFYDNKLASDNVVRVCNVLKNIFFAAYLSLDQVNLLRILKVIPVTVLTGKKIPRWSNWCWLFGLLSGLAMDLRKIQTSHAQIAAFVKAKSQSQGDEHEDHKKVLGKAYQDRYTALRRLFWDAADSFIVLNNLGYLSSNEEYVALSGVVTSILGMQDMWKAT

Molecule: B2
binding result [6]: binds

binding result [7]: binds
B3: yeast Pex14 (other, yeast (S. cerevisiae), UniProt P53112 2-341, looked up)
chain: SDVVSKDRKALFDSAVSFLKDESIKDAPLLKKIEFLKSKGLTEKEIEIAMKEPKKDGIVGDEVSKKIGSTENRASQDMYLYEAMPPTLPHRDWKDYFVMATATAGLLYGAYEVTRRYVIPNILPEAKSKLEGDKKEIDDQFSKIDTVLNAIEAEQAEFRKKESETLKELSDTIAELKQALVQTTRSREKIEDEFRIVKLEVVNMQNTIDKFVSDNDGMQELNNIQKEMESLKSLMNNRMESGNAQDNRLFSISPNGIPGIDTIPSASEILAKMGMQEESDKEKENGSDANKDDNAVPAWKKAREQTIDSNASIPEWQKNTAANEISVPDWQNGQVEDSIP

Reference: patent US20220257725A1, “COMPOSITIONS AND METHODS FOR TREATING PEROXISOMAL BIOGENESIS DISORDERS” (University of Utah Research Foundation, priority 2019, published 2022)
